Tests used:
[1] = tested on: panel of recombinant HIV 1 subtype B RTs; assay: RT binding inhibition (BIC) assay, whole RT panel; details: all conditions studied
Protocol: (iii) Protocol for RT binding inhibition (BIC) assay: The study was performed in a modified DNA polymerase assay. The inhibitors were serially diluted in five steps, enzyme dilution was added and the enzyme/inhibitor mixtures were incubated for 30 minutes at 33° C. Aliquots of the enzyme/inhibitor mixture were transferred to each well of a microtiter plate containing either immobilised primer, or primer/template. The enzyme was allowed to bind to the immobilised polymer for 90 min at 33° C. The amount of RT used was standardised to an activity corresponding to 40-60 pg (3.3-5.0×10^−16 mol) reference HIV-1 RT per well. The plates were then washed to remove unbound enzyme whereupon the amount of bound enzyme was determined by addition of the appropriate reaction solution for polymerisation (i e a reaction solution devoid of primer for studies of primer binding and a reaction solution devoid of both primer and template for studies of binding to primed template). The polymerase reaction was allowed to proceed for 3 hours at 33° C., whereupon the reaction was terminated by a wash of the plate.
The capacity of the indicated substances to inhibit the binding to primer or to primed DNA template of a panel of recombinant HIV 1 subtype B RTs was studied according to “Protocol for RT binding inhibition (BIC) assay” (protocol (iii) above).

[2] = tested on: Mut1 (RNase H inactive mutant of HIV-1 RT); assay: Test of binding by gel filtration on a SMART system; details: starting amounts Mut1 210 pmol, oligonucleotide 630 pmol; Mut1 only 0.50 / 0.63
Text: (§1) In the following experiment, the terms “34-mer” and “35-mer” refer to SEQ ID NO:3 (produced in example A1 above) and SEQ ID NO:4 (produced in example A2 above), respectively. […] Natural RT molecules have an RNase H activity which normally cleaves RNA molecules. […] This mutant is produced according to the method given in Schatz, O., Cromme, F. V., Grüninger-Leitch, F. and Le Grice, S. F. J., Febs Letter. Vol.257, No.2 p.311-314. This RT-mutant is further on referred to as Mut1. The following experiments are carried out:
1. Test of binding by means of separation of the complex Mut1−34-mer (from Example A1) from excess 34-mer using gel filtration on a SMART system.
1. Mut1 is incubated with excess 34-mer for about 90 min at 4° C., buffer Tris-HCl, pH=8.0, containing 5 mM MgCl2. The mixture is then applied to a gel filtration column of a SMART™-type system, which allows simultaneous registration at two different wavelengths.
Starting amounts: Mut=210 pmol; 34-mer=630 pmol. The left peak is the complex Mut1−34-mer. The absorption at 260 nm (the upper curve) is now higher than the absorption at 280 nm (the lower curve): A260/A280=1.13. The right peak is the excess 34-mer, which has the characteristic absorption ratio for nucleic acids: A260/A280=2.01. […]

[3] = tested on: Mut1 (RNase H inactive mutant of HIV-1 RT); assay: Gel mobility shifts in native polyacrylamide gel electrophoresis (PAGE); format: binding
Text: as §1
2. Gel mobility shifts in polyacrylamide gel electrophoresis (PAGE) experiments.
a) Native 20% PAGE gel is run at 4-5° C. Samples are incubated at 4° C. in 50 mM hepes buffer and 5 mM magnesium chloride and varying salt concentrations as indicated below.
Samples are incubated for 90 min at 4° C. prior to a further 10 min incubation at 4° C. with ammonium sulphate and/or KCl. Samples applied to lanes 4 and 5 have twice the amount of 34-mer used for the other samples.
b) Native 20% PAGE gel run at 4-5° C. Samples are incubated at 4° C. in 50 mM hepes buffer and 5 mM magnesium chloride, with varying concentrations of ammonium sulphate.
Native 20% PAGE gel is run at 4-5° C. Samples are incubated at 4° C. in 50 mM hepes buffer, 15 mM manganese sulphate, 1 mM EDTA and 0.25 mM EGTA.
Samples are incubated 10 min at room temperature prior to a 60 min incubation at 4° C. One μl of sample solution is applied per lane. Electrophoresis is conducted with up to 400 volts while cooling to approximately 4° C. After 0.209 kWh the gel is silver stained.

Row | Compound | Capacity to prevent RT binding to primer or primed template [1] | A260/A280 of the complex peak Mut1-oligonucleotide [2] | Gel mobility of Mut1 in complex with oligonucleotide ([3]; native 20% PAGE at 4-5° C.) | Complex with Mut1 at high salt concentrations ([3]; native 20% PAGE, ammonium sulphate up to […])
1 | Cc1ccnc2c1NC(=O)c1cccnc1N2C1CC1 [Nevirapine] | unable to prevent RT binding |  |  | 
2 | 34-mer: phosphorothioate RNA 34-mer corresponding to bases 10-43 in tRNALys3 with unmodified A, G, C and U nucleotides (example A1) |  | 1.13 | migrates faster than Mut1 alone | remains in complex with Mut1
